Assay results as given in PubChem BioAssay AID248 (DTP/NCI, 2004).
Inconclusive results and toxic doses are left out.

Tested on: L1210 leukemia ip in BDF1 mice, survival T/C
Experiment: NCI In Vivo Anticancer Drug Screen. Data for tumor model L1210 Leukemia (intraperitoneal) in B6D2F1 (BDF1) mice
Details: endpoint: mean survival time, higher = longer survival
Method in brief: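 Read-out is survival time, reported as the treated-group measurement over the vehicle-control measurement.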

[1] = dose: 100.0 mg/kg/injection, schedule: Q01DX001 (ip), vehicle: carboxymethylcellulose (CMC)
[2] = dose: 200.0 mg/kg/injection, schedule: Q01DX001 (ip), vehicle: carboxymethylcellulose (CMC)
[3] = dose: 200.0 mg/kg/injection, schedule: Q04DX003 (ip), vehicle: saline with Tween-80
[4] = dose: 100.0 mg/kg/injection, schedule: Q04DX003 (ip), vehicle: Klucel (hydroxypropylcellulose) (HPC)
[5] = dose: 200.0 mg/kg/injection, schedule: Q04DX003 (ip), vehicle: Klucel (hydroxypropylcellulose) (HPC)
[6] = dose: 400.0 mg/kg/injection, schedule: Q04DX003 (ip), vehicle: Klucel (hydroxypropylcellulose) (HPC)

## CC(C)(C)NC(=O)Nc1ccc2ccccc2c1
dose: 100.0 mg/kg/injection, schedule: Q01DX009 (ip), vehicle: other
  T/C: 93 % of control
dose: 200.0 mg/kg/injection, schedule: Q01DX009 (ip), vehicle: other
  T/C: 89 % of control
dose: 400.0 mg/kg/injection, schedule: Q01DX009 (ip), vehicle: other
  T/C: 94 % of control

## NC1CON(C(c2ccccc2)(c2ccccc2)c2ccccc2)C1=O (stereo unspecified)
[1]
  T/C: 94 % of control
[2]
  T/C: 89 % of control

## COc1cc2c(cc1OC)-c1c(OC)c(OC)cc3c1[C@H](C2)N(C)CC3
[1]
  T/C: 96 % of control
[2]
  T/C: 100 % of control
dose: 400.0 mg/kg/injection, schedule: Q01DX001 (ip), vehicle: carboxymethylcellulose (CMC)
  T/C: 100 % of control

## CC(=O)OCCn1c2ccccc2c2c(C)c3cnccc3c(C)c21
dose: 37.5 mg/kg/injection, schedule: Q04DX003 (ip), vehicle: saline
  T/C: 115 % of control
dose: 150.0 mg/kg/injection, schedule: Q04DX003 (ip), vehicle: saline
  T/C: 154 % of control
[3]
  T/C: 108 % of control
dose: 300.0 mg/kg/injection, schedule: Q04DX003 (ip), vehicle: saline with Tween-80
  T/C: 102 % of control
dose: 300.0 mg/kg/injection, schedule: Q04DX003 (ip), vehicle: saline
  T/C: 290 % of control

## COc1ccccc1NC(=S)Nc1ccccc1OC
dose: 100.0 mg/kg/injection, schedule: Q01DX009 (ip), vehicle: Klucel (hydroxypropylcellulose) (HPC)
  T/C: 102 % of control
dose: 100.0 mg/kg/injection, schedule: Q01DX009 (ip), vehicle: saline sonified
  T/C: 97 % of control
dose: 100.0 mg/kg/injection, schedule: Q01DX009 (ip), vehicle: saline with Tween-80
  T/C: 90 % of control
[4]
  T/C: 93 % of control
dose: 100.0 mg/kg/injection, schedule: Q04DX003 (ip), vehicle: saline sonified
  T/C: 110 % of control
dose: 100.0 mg/kg/injection, schedule: Q04DX003 (ip), vehicle: saline with Tween-80
  T/C: 92 % of control
dose: 200.0 mg/kg/injection, schedule: Q01DX009 (ip), vehicle: Klucel (hydroxypropylcellulose) (HPC)
  T/C: 94 % of control
dose: 200.0 mg/kg/injection, schedule: Q01DX009 (ip), vehicle: saline sonified
  T/C: 97 % of control
dose: 200.0 mg/kg/injection, schedule: Q01DX009 (ip), vehicle: saline with Tween-80
  T/C: 101 % of control
[5]
  T/C: 98 % of control
dose: 200.0 mg/kg/injection, schedule: Q04DX003 (ip), vehicle: saline sonified
  T/C: 95 % of control
[3]
  T/C: 96 % of control
dose: 400.0 mg/kg/injection, schedule: Q01DX009 (ip), vehicle: saline sonified
  T/C: 86 % of control
dose: 400.0 mg/kg/injection, schedule: Q01DX009 (ip), vehicle: saline with Tween-80
  T/C: 93 % of control
[6]
  T/C: 96 % of control
dose: 400.0 mg/kg/injection, schedule: Q04DX003 (ip), vehicle: saline sonified
  T/C: 116 % of control
dose: 400.0 mg/kg/injection, schedule: Q04DX003 (ip), vehicle: saline with Tween-80
  T/C: 92 % of control

## CSc1nsc(N)n1
dose: 75.0 mg/kg/injection, schedule: Q01DX001 (ip), vehicle: other
  T/C: 102 % of control
[4]
  T/C: 100 % of control
dose: 150.0 mg/kg/injection, schedule: Q01DX001 (ip), vehicle: other
  T/C: 100 % of control
[5]
  T/C: 100 % of control
dose: 300.0 mg/kg/injection, schedule: Q01DX001 (ip), vehicle: other
  T/C: 103 % of control
[6]
  T/C: 107 % of control
